Source: ChEMBL document CHEMBL5465560, “Selectivity Literature for EUbOPEN Chemogenomic Library” (2024)

Experiments:
[1] = biological target: Tyrosine-protein kinase Lyn (Homo sapiens, UniProt P07948); experiment: Selectivity interaction (KinomeScan (DiscoverX)) EUB0000229b LYN; conditions: at 10 µM
[2] = biological target: Cyclin-dependent kinase 7 (Homo sapiens, UniProt P50613); experiment: Selectivity interaction (KinomeScan (DiscoverX)) EUB0000045b CDK7
[3] = biological target: T1, Tyrosine-protein kinase Tec (Homo sapiens) (UniProt P42680); conditions: at 10 µM
T1 sequence (whole entry): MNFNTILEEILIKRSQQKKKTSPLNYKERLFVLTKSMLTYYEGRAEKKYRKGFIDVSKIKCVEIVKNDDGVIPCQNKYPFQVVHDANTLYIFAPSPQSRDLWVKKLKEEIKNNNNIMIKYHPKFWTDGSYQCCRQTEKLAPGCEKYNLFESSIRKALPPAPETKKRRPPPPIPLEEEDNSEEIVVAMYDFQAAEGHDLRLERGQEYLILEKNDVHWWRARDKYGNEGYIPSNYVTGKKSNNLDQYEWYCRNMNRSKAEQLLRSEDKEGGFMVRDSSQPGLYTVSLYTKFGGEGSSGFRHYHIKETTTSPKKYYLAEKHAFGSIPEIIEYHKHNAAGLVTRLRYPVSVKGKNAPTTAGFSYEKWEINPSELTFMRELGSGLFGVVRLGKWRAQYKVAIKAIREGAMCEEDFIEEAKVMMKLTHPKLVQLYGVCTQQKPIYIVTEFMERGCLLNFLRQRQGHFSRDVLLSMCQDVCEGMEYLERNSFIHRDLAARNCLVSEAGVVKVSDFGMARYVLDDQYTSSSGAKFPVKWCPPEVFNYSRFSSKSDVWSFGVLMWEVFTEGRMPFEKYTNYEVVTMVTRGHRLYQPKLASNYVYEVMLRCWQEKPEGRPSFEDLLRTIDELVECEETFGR

Histamine H3 receptor = Histamine H3 receptor (Homo sapiens, UniProt Q9Y5N1); experiment: Selectivity interaction (Human histamine H3 receptor binding assay ) EUB0000877a HRH3
Sequence of Histamine H3 receptor (Q9Y5N1 whole entry): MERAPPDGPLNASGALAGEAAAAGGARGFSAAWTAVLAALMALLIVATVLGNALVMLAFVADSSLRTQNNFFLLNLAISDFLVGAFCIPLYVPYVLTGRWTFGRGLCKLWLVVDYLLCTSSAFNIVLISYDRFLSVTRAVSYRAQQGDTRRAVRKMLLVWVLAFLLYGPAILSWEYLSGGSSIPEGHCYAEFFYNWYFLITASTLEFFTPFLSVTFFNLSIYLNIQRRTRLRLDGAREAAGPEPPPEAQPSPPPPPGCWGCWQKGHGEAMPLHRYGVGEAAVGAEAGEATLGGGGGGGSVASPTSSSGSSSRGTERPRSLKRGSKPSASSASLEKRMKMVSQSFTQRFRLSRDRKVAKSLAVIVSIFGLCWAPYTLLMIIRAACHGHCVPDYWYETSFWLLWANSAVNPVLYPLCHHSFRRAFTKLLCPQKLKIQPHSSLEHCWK

[4] = biological target: Serine/threonine-protein kinase 25 (Homo sapiens) (UniProt O00506); experiment: Selectivity interaction (ProQinase) EUB0000171b STK25
Sequence of Serine/threonine-protein kinase 25 (Homo sapiens) (O00506 whole entry, looked up): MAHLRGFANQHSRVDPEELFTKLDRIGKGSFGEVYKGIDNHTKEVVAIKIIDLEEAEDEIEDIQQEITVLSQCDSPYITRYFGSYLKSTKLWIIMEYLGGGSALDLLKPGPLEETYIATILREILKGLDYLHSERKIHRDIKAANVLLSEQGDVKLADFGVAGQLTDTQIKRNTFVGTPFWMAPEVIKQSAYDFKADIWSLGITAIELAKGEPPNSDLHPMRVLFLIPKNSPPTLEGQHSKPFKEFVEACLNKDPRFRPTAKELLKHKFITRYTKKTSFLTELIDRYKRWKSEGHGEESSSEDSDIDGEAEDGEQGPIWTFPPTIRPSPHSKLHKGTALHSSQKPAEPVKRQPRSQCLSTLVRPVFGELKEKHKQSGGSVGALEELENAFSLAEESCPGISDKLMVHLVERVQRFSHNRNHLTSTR

[5] = biological target: Serine/threonine-protein kinase WNK3 (Homo sapiens) (UniProt Q9BYP7); experiment: Selectivity interaction (KinomeScan (DiscoverX)) EUB0001619a WNK3; conditions: at 1 µM
Sequence of Serine/threonine-protein kinase WNK3 (Homo sapiens) (Q9BYP7 whole entry): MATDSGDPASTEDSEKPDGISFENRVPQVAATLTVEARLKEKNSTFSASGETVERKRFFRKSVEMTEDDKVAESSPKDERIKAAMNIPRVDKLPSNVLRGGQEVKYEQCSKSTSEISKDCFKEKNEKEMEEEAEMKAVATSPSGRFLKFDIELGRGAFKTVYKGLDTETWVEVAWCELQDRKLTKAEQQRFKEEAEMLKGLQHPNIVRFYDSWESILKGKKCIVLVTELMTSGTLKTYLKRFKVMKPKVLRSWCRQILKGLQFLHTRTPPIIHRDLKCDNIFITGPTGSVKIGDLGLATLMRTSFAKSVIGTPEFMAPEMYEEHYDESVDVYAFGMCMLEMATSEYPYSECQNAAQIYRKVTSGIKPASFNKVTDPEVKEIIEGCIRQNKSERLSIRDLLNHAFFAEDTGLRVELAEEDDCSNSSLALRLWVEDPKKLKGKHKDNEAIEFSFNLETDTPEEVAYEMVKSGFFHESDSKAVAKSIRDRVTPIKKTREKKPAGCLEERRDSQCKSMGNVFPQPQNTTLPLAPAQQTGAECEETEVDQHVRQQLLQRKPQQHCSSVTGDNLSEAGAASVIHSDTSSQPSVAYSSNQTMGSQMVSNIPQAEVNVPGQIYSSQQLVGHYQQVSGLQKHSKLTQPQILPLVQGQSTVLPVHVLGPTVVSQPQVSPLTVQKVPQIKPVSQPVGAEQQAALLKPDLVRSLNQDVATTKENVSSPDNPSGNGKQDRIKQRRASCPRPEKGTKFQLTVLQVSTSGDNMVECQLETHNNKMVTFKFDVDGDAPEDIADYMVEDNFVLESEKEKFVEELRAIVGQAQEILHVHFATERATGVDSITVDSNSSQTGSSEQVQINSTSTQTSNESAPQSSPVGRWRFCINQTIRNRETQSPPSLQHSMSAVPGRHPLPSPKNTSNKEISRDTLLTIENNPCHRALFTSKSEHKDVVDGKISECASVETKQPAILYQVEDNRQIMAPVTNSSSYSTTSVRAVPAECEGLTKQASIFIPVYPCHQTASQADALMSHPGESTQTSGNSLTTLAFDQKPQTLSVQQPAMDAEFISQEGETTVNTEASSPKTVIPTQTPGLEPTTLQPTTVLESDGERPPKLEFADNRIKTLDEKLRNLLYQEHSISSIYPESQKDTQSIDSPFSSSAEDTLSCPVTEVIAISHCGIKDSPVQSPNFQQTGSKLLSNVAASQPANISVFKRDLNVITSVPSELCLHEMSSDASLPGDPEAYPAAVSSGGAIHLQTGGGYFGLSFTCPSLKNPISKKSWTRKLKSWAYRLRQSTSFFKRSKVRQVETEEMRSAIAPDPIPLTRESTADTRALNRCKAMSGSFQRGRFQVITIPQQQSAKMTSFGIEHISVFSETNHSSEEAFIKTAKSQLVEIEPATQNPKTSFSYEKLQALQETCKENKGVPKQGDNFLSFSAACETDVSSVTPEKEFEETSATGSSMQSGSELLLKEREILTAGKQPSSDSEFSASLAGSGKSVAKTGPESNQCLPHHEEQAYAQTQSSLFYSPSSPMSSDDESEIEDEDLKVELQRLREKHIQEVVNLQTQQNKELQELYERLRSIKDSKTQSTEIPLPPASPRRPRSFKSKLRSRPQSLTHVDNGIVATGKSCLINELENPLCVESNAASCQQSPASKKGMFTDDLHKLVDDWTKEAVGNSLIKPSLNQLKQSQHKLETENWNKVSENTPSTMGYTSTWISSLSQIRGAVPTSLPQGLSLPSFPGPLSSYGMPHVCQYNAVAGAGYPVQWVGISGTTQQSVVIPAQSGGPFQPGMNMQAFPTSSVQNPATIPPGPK

[6] = biological target: Ephrin type-A receptor 2 (Homo sapiens) (UniProt P29317); experiment: Selectivity interaction (KinomeScan (DiscoverX)) EUB0000607a EPHA2; conditions: at 10 µM
Sequence of Ephrin type-A receptor 2 (Homo sapiens) (P29317 whole entry): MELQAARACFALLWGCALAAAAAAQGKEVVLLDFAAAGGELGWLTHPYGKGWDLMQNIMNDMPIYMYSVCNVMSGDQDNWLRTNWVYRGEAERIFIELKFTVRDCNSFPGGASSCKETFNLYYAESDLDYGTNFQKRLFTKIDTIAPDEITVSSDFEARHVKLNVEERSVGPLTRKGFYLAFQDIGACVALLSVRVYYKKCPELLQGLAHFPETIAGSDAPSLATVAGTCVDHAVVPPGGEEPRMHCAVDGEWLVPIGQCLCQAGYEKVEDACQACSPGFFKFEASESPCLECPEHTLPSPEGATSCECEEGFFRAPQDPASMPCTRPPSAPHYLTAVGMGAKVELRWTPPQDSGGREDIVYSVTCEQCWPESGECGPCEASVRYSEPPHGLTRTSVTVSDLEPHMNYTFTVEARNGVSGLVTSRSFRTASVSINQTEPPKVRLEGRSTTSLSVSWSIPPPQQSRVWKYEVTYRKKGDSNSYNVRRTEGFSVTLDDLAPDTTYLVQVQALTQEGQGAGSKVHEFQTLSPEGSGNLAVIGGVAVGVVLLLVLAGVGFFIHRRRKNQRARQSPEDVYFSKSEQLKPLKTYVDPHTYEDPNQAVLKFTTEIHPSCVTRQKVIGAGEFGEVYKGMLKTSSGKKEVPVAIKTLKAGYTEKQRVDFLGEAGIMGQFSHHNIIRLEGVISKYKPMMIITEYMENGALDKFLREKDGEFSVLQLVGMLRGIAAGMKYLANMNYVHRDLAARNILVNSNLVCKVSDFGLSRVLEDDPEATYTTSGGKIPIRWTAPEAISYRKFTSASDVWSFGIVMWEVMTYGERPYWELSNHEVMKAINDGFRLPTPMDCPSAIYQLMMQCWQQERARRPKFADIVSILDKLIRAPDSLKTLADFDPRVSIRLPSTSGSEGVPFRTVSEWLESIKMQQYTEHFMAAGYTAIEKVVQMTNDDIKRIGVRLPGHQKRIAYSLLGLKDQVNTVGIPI

[7] = biological target: T2, Aurora kinase A (Homo sapiens) (UniProt O14965); experiment: Selectivity interaction (ActivX KiNativ screen (kinase selectivity in THP-1 cell lysates)) EUB0000639a STK6; assay type: subcellular; conditions: lysate, at 1 µM
T2 sequence (whole entry): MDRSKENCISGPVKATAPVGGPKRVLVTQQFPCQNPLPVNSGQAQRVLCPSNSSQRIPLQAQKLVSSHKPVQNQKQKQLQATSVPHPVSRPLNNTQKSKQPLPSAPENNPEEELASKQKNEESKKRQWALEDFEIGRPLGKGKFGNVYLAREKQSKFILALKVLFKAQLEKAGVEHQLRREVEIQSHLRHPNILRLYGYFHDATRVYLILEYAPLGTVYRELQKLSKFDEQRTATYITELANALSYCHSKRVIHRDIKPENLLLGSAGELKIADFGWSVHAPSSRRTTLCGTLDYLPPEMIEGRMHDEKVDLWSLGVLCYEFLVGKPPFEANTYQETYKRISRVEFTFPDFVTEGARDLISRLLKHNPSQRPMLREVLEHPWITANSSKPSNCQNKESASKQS

[8] = biological target: T3, Phosphatidylinositol 5-phosphate 4-kinase type-2 gamma (Homo sapiens) (UniProt Q8TBX8); experiment: Selectivity interaction (ActivX KiNativ screen (kinase selectivity in THP-1 cell lysates)) EUB0000639a PIP4K2C; assay type: subcellular; conditions: lysate, at 0.2 µM
T3 sequence (whole entry): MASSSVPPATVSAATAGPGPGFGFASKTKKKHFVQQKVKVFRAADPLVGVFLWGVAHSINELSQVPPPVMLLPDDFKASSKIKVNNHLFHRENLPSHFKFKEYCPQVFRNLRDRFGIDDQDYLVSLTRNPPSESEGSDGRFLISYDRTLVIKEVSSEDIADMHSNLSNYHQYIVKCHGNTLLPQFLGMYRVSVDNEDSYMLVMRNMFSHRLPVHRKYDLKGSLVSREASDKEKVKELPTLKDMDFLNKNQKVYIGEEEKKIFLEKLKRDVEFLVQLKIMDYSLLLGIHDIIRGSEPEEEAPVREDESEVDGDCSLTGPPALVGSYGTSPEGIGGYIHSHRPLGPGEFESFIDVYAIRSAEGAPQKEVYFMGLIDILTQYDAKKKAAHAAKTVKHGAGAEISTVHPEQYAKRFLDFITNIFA

[9] = biological target: T4, Serine/threonine-protein kinase Sgk3 (Homo sapiens) (UniProt Q96BR1); experiment: Selectivity interaction (ActivX KiNativ screen (kinase selectivity in THP-1 cell lysates)) EUB0000639a SGK3; assay type: subcellular; conditions: lysate, at 0.2 µM
T4 sequence (whole entry): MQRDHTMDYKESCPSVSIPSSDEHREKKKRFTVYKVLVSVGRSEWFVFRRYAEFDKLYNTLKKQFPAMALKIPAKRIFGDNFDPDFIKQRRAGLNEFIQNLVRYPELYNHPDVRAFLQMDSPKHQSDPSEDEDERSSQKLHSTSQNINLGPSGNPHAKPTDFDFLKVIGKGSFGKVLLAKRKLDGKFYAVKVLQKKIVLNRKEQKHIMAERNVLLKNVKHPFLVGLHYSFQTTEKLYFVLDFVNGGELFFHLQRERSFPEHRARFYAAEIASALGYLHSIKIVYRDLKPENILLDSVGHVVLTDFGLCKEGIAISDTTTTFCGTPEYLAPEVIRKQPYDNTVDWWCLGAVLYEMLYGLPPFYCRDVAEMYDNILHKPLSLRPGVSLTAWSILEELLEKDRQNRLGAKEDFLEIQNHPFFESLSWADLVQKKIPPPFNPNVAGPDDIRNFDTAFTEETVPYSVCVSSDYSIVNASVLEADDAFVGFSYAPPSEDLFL

[10] = biological target: T5, Dual specificity mitogen-activated protein kinase kinase 3 (Homo sapiens) (UniProt P46734); experiment: Selectivity interaction (Ambit KINOMEscan and KiNATiv profiling in Jurkat cells) EUB0000090b MAP2K3; assay type: cell-based; conditions: at 1 µM
T5 sequence (whole entry): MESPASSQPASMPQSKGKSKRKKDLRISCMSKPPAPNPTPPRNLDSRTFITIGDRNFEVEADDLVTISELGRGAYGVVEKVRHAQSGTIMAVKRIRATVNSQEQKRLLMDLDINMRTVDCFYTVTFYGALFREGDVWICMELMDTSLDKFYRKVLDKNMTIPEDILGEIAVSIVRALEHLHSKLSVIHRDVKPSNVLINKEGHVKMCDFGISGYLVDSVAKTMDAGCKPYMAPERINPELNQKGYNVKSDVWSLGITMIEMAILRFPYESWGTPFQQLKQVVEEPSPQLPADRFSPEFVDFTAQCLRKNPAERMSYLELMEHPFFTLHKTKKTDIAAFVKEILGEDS

Sequence of Cyclin-dependent kinase 7 (P50613 whole entry): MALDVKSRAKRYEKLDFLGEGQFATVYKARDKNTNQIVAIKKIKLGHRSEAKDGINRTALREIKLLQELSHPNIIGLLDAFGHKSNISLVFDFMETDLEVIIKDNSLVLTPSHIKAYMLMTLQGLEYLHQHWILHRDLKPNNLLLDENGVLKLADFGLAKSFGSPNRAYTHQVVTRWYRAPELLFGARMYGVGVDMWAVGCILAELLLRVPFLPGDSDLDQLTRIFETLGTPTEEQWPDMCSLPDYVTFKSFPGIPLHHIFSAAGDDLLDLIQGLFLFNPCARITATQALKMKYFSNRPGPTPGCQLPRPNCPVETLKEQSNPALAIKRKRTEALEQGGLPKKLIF
Sequence of Tyrosine-protein kinase Lyn (P07948 2-512 limits assumed): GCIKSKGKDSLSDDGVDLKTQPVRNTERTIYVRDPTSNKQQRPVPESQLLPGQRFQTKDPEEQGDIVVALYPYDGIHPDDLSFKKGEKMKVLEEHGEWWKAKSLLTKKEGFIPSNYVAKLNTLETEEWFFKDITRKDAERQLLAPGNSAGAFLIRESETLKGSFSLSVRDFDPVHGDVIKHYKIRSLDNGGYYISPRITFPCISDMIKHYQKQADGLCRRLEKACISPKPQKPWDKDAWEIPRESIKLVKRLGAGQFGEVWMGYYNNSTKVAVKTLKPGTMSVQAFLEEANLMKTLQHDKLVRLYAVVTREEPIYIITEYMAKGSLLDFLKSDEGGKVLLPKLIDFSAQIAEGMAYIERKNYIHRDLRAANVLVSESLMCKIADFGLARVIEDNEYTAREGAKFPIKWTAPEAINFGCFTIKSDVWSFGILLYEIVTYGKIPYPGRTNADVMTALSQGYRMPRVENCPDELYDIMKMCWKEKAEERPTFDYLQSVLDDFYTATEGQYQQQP

With `COc1cc(N(C)c2ccnc3ccc(C(F)(F)F)cc23)cc(OC)c1OC` the % binding [1] was 96%.

Work on `C=CC(=O)Nc1cc(-n2c(=O)ccc3cnc4ccc(-c5ccc(NS(C)(=O)=O)cc5)cc4c32)ccc1C` yielded a % of control ([2]; at 1 µM) of 79% and a % of control ([2]; at 10 µM) of 26%.

`Cc1cc([C@@H](C)Nc2ccccc2C(=O)O)c2nc(N3CCOCC3)cc(=O)n2c1` [AZD-6482] was tested, and the % of control [3] was 91%.

For `CCC(=O)N1CC[C@H](Nc2ncnc3c2CN(c2cnc(OC)c(C(F)(F)F)c2)CC3)C1` [LENIOLISIB], the IC50 (Histamine H3 receptor) was > 30 µM.

`C=CC(=O)Nc1cccc(C(=O)Nc2ccc(Nc3cc(-c4[nH]c(SC)nc4C)ccn3)cc2)c1` showed a % of control ([4]; at 1 µM) of 88% and a % of control ([4]; at 5 µM) of 95%.

`N#Cc1cccc(-c2c[nH]c3ncnc(N4CCOCC4)c23)c1` gave a % of control [5] of 100%.

For `CNC(=O)Nc1ccc(-c2nc(N3CC4CCC(C3)O4)c3cnn(C4CCC5(CC4)OCCO5)c3n2)cc1`, the % of control [6] was 81%.

`CC[C@@H]1[C@H](F)C(=O)N[C@@H]1COc1nccc2cc(C(N)=O)c(OC)cc12` [ZIMLOVISERTIB] was tested, and the % of inhibition [7] was 17.4%, the % of inhibition [8] was 51.3% and the % of inhibition [9] was -5.7%.

Compound `CN(C)C/C=C/C(=O)Nc1ccc(C(=O)N2CCCC(Nc3ncc(Cl)c(-c4c[nH]c5ccccc45)n3)C2)cc1` (stereo not drawn) has a % of control [10] of 51%.
